Values of other authors in EP3744320A1, “PHAR[…] C[…]” (Alfred E. Tiefenbacher (GmbH & Co. KG), priority 2019, dated 2020).

time of peak plasma concentrations (administered in vivo): 1 to 2 h | absolute bioavailability (in vivo): approximately 62% | absorbed in the upper gastrointestinal tract (in vivo): approximately 85%
SMILES: CN1CCc2nc(C(=O)N[C@@H]3C[C@@H](C(=O)N(C)C)CC[C@@H]3NC(=O)C(=O)Nc3ccc(Cl)cn3)sc2C1 [edoxaban, N'-(5-chloropyridin-2-yl)-N-[(1S,2R,4S)-4-(dimethylcarbamoyl)-2-[(5-methyl-6,7-dihydro-4H-[1,3]thiazolo[5,4-c]pyridine-2-carbonyl)amino]cyclohexyl]oxamide]
